Patent publication US20240024494A1, “SMALL-MOLECULE CONJUGATE AND USE THEREOF” (SHANGHAI MEWSGEN BIOTECHNOLOGY CO., LTD, priority 2020, published 2024)

Experiments:
Format in all cases: cell-based
[1] = test system: KYSE-150 (human esophageal squamous carcinoma cells); conditions: 72 h
Excerpt: (§1) A part of the compounds of the examples of the present disclosure were subjected to a tumor cell proliferation inhibition test by using an MTT method (e.g. Pharmacological Research Method of New Drug, 2007: 242-243, edited by Lu Qiujun).
(§2) A cell strain was selected from KYSE-150 (human esophageal squamous carcinoma cells), MGC803 (human gastric carcinoma cells), and SHG44 (human glioma cells), and frozen and passaged by a pharmacological laboratory of Shanghai Institute of Pharmaceutical Industry. A culture solution was DMEM+10% FBS+double antibody.
(§3) In-vitro activity test: 100 μL of a cell suspension at a concentration of 4-5×10^4/mL was added to each well of a 96-well plate, and placed in a 5% CO2 incubator at 37° C. After 24 h, a sample solution was added at 10 μL/well, double duplicate wells were set, and a reaction was performed at 37° C. with 5% CO2 for 72 h. 20 μL of 5 mg/ml of an MTT solution was added into each well and reacted for 4 h, a dissolving solution was added at 100 μL/well, the mixture was placed in an incubator, and after dissolution, an OD value at 570 nm was measured with a full-wavelength multifunctional microplate reader. An inhibition rate (IR) and a median inhibitory concentration (IC50) were calculated by using an Excel software.
(§4) The inhibition rate (IR %) of the drug on cell growth was calculated according to the following equation: […]

[2] = test system: MGC803 (human gastric carcinoma cells); conditions: 72 h
Excerpt: as §1, §2, §3, §4

[3] = test system: SHG44 (human glioma cells); conditions: 72 h
Excerpt: as §1, §2, §3, §4

[4] = test system: HCT116 (human colon cancer cells); experiment: Tumor cell proliferation inhibition test, CCK-8 method (Example 21); conditions: Homo sapiens, HCT-116; CCK-8, 72 h, Table 3; read-out: IC50 HCT116
Method: (§5) A part of the compounds prepared in the examples of the present disclosure were subjected to a tumor cell proliferation inhibition test by using a CCK-8 method. Cell lines HCT116 (human colon cancer cells), MGC803 (human gastric cancer cells), and MIA PACA-2 (human pancreatic cancer cells) were purchased from Shanghai Meixuan Technology Co., Ltd. Samples (a part of the compounds prepared in the examples) were dissolved in DMSO (Merck), prepared into a concentration of 10 mM, and finally triply diluted in DMEM or McCoy's 5A 1640 medium to 8 concentration gradients. A cell culture solution was collected when a cell culture met a test requirement, 10 μL of the cell culture solution was uniformly coated on a cell counting plate, cells were counted for 3 times under a microscope, and a cell density was calculated by taking an average value; and a 96-well plate (Corning, #3599) was taken, 200 μL of the cell culture solution was added into each well for cell inoculation at a cell concentration of 6×10^3 cells per well, and the inoculated 96-well plate was incubated in a cell incubator containing 5% CO2 at 37° C. for 24 h. An old culture medium was removed by suction, 200 μL of the triply diluted sample DMEM or McCoy's 5A 1640 medium at an initial concentration of 10 μmol/L was added to each well, the DMSO content was controlled to be 1%, three duplicate wells were set, PBS was used as a blank control, and the plate was incubated in the incubator for 72 h. The original DMEM or McCoy's 5A 1640 medium in the 96-well plate and a PBS buffer in a final row were sucked out, a prepared CCK-8 solution (90% DMEM or McCoy's 5A 1640 medium+10% CCK-8) was added, the mixture was incubated in an incubator, and an absorbance was read by using a Biotek microplate reader. Cell growth inhibition rate IC %=(blank control well OD value−administration well OD value)/blank control well OD value×100%.

[5] = test system: MGC803 (human gastric cancer cells); experiment: as above; conditions: Homo sapiens, MGC-803; CCK-8, 72 h, Table 3; read-out: IC50 MGC803
Method: as §5

[6] = test system: MIA PACA-2 (human pancreatic cancer cells); experiment: as above; conditions: Homo sapiens, MIA PaCa-2; CCK-8, 72 h, Table 3; read-out: IC50 MIA PACA-2
Method: as §5

| SMILES | IC50 [1] | IC50 [2] | IC50 [3] | IC50 [4] | IC50 [5] | IC50 [6] |
| --- | --- | --- | --- | --- | --- | --- |
| COc1cc(C(=O)NCCOCCOCCOCCOCCC(=O)N[C@@H](C(=O)N[C@@H](CCCNC(N)=O)C(=O)Nc2ccc(COC(=O)N3CCN(C(=O)O[C@H]4CC[C@@]5(C)[C@H](CC[C@@H]6[C@@H]5[C@H](O)C(=O)[C@]5(C)[C@@H](c7ccc(=O)oc7)CC[C@]65O)C4)CC3)cc2)C(C)C)ccc1NC(=O)[C@@H]1N[C@@H](CC(C)(C)C)[C@](C#N)(c2ccc(Cl)cc2F)[C@H]1c1cccc(Cl)c1F [Compound I-1] | 40 nM | 9 nM | 3 nM | – | – | – |
| COc1cc(C(=O)O)ccc1NC(=O)[C@@H]1N[C@@H](CC(C)(C)C)[C@](C#N)(c2ccc(Cl)cc2F)[C@H]1c1cccc(Cl)c1F [Idasanutlin, reference compound] | – | – | – | 110 nM | 1090 nM | > 10000 nM |
